According to patent publication US6774109B2, “Inhibition of amylin release” (Societe de Conseils de Recherches et d'Applications …, priority 1995, dated 2004):
Like-named read-outs stand apart in the source and are kept apart here. Non-standard residues stand in square brackets, D forms with d. Residues, ends and D or L forms follow the SMILES beside them. *: point of attachment. X1 = O=C(CN1CCN(CCO)CC1)*

Tests used:
rat SSTR-2 = biological target: T1, rat SSTR-2 (Rattus norvegicus, UniProt P30680); experiment: Rat SSTR-2 binding assay ([125I-Tyr]MK-678, AR42J cell membranes)
T1 construct: Crude membranes were prepared by homogenizing AR42J cells; host or cells: AR42J rat pancreatic acinar tumor cells
Experimental: Crude membranes were prepared by homogenizing AR42J cells (ATCC, Rockville, Md.; ATCC No. CRL1992) in 20 ml of ice-cold 50 mM Tris-HCl (Buffer A) with a POLYTRON homogenizer (Brinkmann Instruments, Westbury, N.Y.) at setting 6, for 15 sec. Additional Buffer A was added to obtain a final volume of 40 ml, and the homogenate was centrifuged in a Sorval SS-34 rotor (DuPont, Newtown, Conn.) at 39,000 g for 10 min at 0-4° C. The resulting supernatant was decanted and discarded. The pellet was rehomogenized in ice-cold Buffer A, diluted, and centrifuged as before. The final pellet was resuspended in the 10 mM Tris HCl and held on ice for the receptor binding assay.
Aliquots of the membrane preparation were incubated for 90 min at 25° C. with 0.05 nM [^125I-Tyr]MK-678 (2000 Ci/mmol) in 50 mM HEPES (pH 7.4) containing a test peptide of various concentrations (e.g., 10^−11 to 10^−6 M), 10 mg/ml bovine serum albumin (fraction V) (Sigma Chemical Co., St. Louis, Mo.), MgCl2 (5 mM), Trasylol (200 KIU/ml), bacitracin (0.02 mg/ml), and phenylmethyl-sulphonyl fluoride (0.02 mg/ml). The final assay volume was 0.3 ml. The incubations were terminated by rapid filtration through GF/C filters (pre-soaked in 0.3% polyethylenimine for 30 min) using a filtration manifold (Brandel, Gaithersburg, Md.).

rat SSTR-5 [1] = biological target: T2, rat SSTR-5 (Rattus norvegicus, UniProt P30938); experiment: Rat SSTR-5 binding assay ([125I-Tyr11]somatostatin-14, rat olfactory bulb membranes)
T2 construct: Crude membranes were prepared by homogenization of rat olfactory bulb cells; tissue Zivic-Miller Laboratory, Inc; host or cells: rat olfactory bulb
T2 sequence (P30938 1-363): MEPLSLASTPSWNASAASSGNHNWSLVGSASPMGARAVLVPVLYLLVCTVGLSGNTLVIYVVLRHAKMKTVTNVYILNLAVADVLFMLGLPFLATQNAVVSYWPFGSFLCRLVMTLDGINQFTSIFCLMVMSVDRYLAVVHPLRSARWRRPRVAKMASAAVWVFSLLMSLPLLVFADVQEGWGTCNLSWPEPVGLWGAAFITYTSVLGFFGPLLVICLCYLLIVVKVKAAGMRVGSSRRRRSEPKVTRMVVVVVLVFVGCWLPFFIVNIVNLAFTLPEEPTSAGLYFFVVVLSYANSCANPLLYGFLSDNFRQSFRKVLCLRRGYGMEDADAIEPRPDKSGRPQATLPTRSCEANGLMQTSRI
Experimental: (§1) Crude membranes were prepared by homogenization of rat olfactory bulb cells (Zivic-Miller Laboratory, Inc., Zellenople, Pa.) in 20 ml of ice-cold 50 mM Tris-HCl with a POLYTRON homogenizer (setting 6, 15 sec). Buffer was added to obtain a final volume of 40 ml, and the homogenate was centrifuged in a Sorval SS-34 rotor at 39,000 g for 10 min at 0-4° C. The resulting supernatant was decanted and discarded. The pellet was rehomogenized in ice-cold buffer, diluted, and centrifuged as before. The final pellet was resuspended in the 10 mM Tris HCl and held on ice for the receptor binding assay.
(§2) The final assay volume was 0.3 ml. The incubations were terminated by rapid filtration through GF/C filters (pre-soaked in 0.3% polyethylenimine for 30 min) using a Brandel filtration manifold. Each tube and filter were then washed three times with 5 ml aliquots of ice-cold buffer.

human SSTR-5 = biological target: T3, human SSTR-5 (Homo sapiens, UniProt P35346); experiment: Human SSTR-5 binding assay (transfected CHO-K1 cells); details: for SSTR-2/SSTR-5 (ratio of Ki's): human SSTR-2 Ki / human SSTR-5 Ki
T3 construct: expressed in transfected cells
From the text: The human SSTR-5 cDNA clone has been described in the literature. See Panetta, et al., Mol Pharmacol., 45:417-427 (1994); O'Carroll, et al., Mol Pharmacol, 46:291-298 (1994); Yamada, et al., Biochem. Biophys. Res. Commun., 195:844 (1993) [FIG. 1 depicts the DNA sequence of the human SSTR-5.] Using a sense 5′-oligonucleotide primer, immediately preceeding the start codon (residue 30-50), and an antisense 3′-oligonucleotide primer, immediately preceeding the stop codon (residues 1180-1200), a 1170 base pair fragment comprising the full-length coding sequence of the receptor was obtained by standard Reverse-transcription PCR. See Yamada, et al., Biochem. Biophys. Res. Commun., 195:844 (1993) [FIG. 1 depicts the DNA sequence of the human SSTR-5]; Innis, et al., PCR Protocols, A Guide to Methods and Applications, Academic Press, 1990. The identity of the cDNA fragment was verified by DNA sequencing using the dideoxy-chain termination method [Sanger, et al., Proc Natl Acad Sci USA., 74:5463 (1977)] with the Sequenase kit (United States Biochemicals, Arlington Heights, Ill.).
The human SSTR-5 cDNA fragment was inserted into a mammalian expression vector, pCMV to generate the expression plasmid pCMV-human SSTR-5 by blunt-end ligation.
Membranes from the stably transfected cell line were used in the rat SSTR-5 binding protocol described above.

human SSTR-2 = human SSTR-2 (Homo sapiens, UniProt P30874); experiment: Human SSTR-2 binding assay (transfected CHO-K1 cells)
Experimental: CHO-K1 (ovary, Chinese hamster) cells were obtained from the American Type Culture Collection, Rockville, Md. […] The cells were grown and maintained in Ham's F12 media (Gibco BRL, Grand Island, N.Y.) supplemented with 10% fetal bovine serum under standard tissue culture conditions.
For transfection, the cells were seeded at a density 1×10^6/60 cm^2 plate (Baxter Scientific Products, McGaw Park, Ill.). DNA mediated transfection was carried out using the calcium phosphate co-precipitation method (Ausubel, et al., Current Protocols in Molecular Biology, John Wiley & Sons, 1987). The plasmid pRSV-neo (ATCC; ATCC No. 37198) was included as a selectable marker at 1/10 the concentration of the expression plasmid. CHO-K1 clonal cell lines that have stably inherited the transfected DNA were selected for growth in Ham's F12 media containing 10% fetal bovine serum and 0.5 mg/ml of G418 (Sigma Chemical Co., St. Louis, Mo.). The cells were ring-cloned and expanded in the same media for analysis.

rat SSTR-5 [2] = experiment: Rat SSTR-5 binding assay ([125I-Tyr11]somatostatin-14, rat olfactory bulb membranes); details: rat SSTR-2 Ki / rat SSTR-5 Ki
Experimental: as §1, §2

rat Pancreas cells = experiment: Amylin release inhibition assay using rat pancreas cells (isolated perfused pancreas); format: cell-based; details: 16.7 mM glucose, 10 nM test compound
Experimental: Sprague-Dawley rats (male, 200-300 g) (Harlan-Olac, Bicester, Oxon, UK) were anaesthetized with sodium pentobarbitone (60 mg/kg). […] The pancreases were perfused, as described in Dunmore, et al., J. Endocrinol., 1993, 137, 375-381, with modified Krebs-Ringer bicarbonate buffer containing 3% dextran T40 (Pharmacia, Milton Keynes, Bucks, UK) and 1% high purity bovine serum albumin (Sigma, Poole, Dorset, UK). After an initial 15-min period to allow for stabilization, the isolated pancreases were perfused at sequential 10 min. intervals, at a rate of 4.5-5.0 ml/min, with the following buffer compositions: 1) Buffer 1: Krebs-Ringer bicarbonate buffer containing 5.6 mM glucose (to examine baseline amylin secretion); 2) Buffer 2: Krebs-Ringer bicarbonate buffer containing 16.7 mM glucose (to examine high glucose stimulated secretion); 3) Buffer 3: Krebs-Ringer bicarbonate buffer containing 16.7 mM glucose in the presence of 10 nM of test compound (to examine the activity of test compounds on high glucose stimulated amylin secretion); and 4) Buffer 2: Krebs-Ringer bicarbonate buffer containing 16.7 mM glucose (to re-examine high glucose stimulated amylin secretion in order to assess the reversibility of the activity of the test compounds).
Fractions of the perfusate were collected on ice every minute in the presence of 400 KIU/ml aprotinin (Bayer, Hayward's Heath, W. Sussex, UK). Fractions were stored at −20° C. until assay. Perfusates collected were divided into 3×1.5 ml aliquots and assayed for amylin by radioimmunoassay as described in Dunmore, et al., J. Endocrinol., 1993, 137:375. Amylin was assayed using reagents supplied by Peninsula Laboratories Ltd. (St. Helens, Merseyside, UK). These reagents include ^125I-labelled amylin, rabbit anti-rat amylin antibody, and rat amylin. Bound amylin was precipitated using goat anti-rabbit second antibody—coupled cellulose (Sac-Cal, IDS, Boldon, Tyneawear, UK).

[3] = rat, AR42J cell membranes, radioligand [125I-Tyr]MK-678 0.05 nM, read-out: Ki SSTR-2

T3 sequence (P35346 whole entry): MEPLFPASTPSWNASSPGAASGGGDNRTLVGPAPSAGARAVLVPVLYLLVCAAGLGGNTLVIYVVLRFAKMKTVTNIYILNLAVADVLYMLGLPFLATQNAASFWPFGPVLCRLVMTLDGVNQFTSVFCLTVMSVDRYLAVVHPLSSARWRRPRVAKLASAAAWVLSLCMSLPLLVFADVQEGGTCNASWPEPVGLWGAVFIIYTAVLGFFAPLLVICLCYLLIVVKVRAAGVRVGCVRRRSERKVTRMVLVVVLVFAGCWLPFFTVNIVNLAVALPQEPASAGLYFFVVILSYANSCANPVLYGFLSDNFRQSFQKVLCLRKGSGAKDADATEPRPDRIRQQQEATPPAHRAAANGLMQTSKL
human SSTR-2, sequence (P30874 whole entry): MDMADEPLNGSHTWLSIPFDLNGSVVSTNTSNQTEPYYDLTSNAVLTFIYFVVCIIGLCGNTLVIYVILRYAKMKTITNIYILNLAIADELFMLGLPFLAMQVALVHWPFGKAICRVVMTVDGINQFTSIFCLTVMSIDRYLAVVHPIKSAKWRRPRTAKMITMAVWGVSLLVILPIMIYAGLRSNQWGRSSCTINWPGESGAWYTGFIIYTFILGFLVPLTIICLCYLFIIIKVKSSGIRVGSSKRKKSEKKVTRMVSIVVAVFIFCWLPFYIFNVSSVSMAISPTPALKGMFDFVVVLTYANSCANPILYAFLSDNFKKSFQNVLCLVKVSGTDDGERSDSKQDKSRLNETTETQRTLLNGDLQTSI
T1 sequence (P30680 whole entry): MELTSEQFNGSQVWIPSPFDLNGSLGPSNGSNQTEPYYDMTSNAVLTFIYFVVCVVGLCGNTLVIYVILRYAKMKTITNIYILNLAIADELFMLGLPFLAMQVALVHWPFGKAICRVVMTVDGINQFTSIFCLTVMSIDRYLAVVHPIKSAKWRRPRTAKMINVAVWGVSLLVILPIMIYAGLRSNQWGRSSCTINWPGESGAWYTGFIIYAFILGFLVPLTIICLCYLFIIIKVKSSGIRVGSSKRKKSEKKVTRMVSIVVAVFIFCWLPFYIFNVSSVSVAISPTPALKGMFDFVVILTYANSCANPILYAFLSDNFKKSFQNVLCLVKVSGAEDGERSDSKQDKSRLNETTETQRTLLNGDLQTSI

For `C[C@@H](O)[C@H](NC(=O)[C@H](Cc1ccccc1)NC(=O)[C@@H](NC(=O)[C@H](CCCCN)NC(=O)[C@@H](Cc1c[nH]c2ccccc12)NC(=O)[C@H](Cc1ccccc1)NC(=O)[C@H](Cc1ccccc1)NC(=O)[C@@H](Cc1ccccc1)NC(=O)CN1CCN(CCO)CC1)[C@@H](C)O)C(N)=O` [Analog II] (X1-[dF]FF[dW]KTFT-NH2), the Ki (rat SSTR-2; [3]) was 305 nM, the Ki (rat SSTR-5 [1]; read-out: Ki SSTR-5) was 5.38 nM and the Ki (human SSTR-5; human receptor in CHO-K1 cells, LC 0.05 nM, LEC 0.18 nM, read-out: Ki SSTR-5) was 1.29 nM. For the same compound, the Ki (human SSTR-2) was 4.15 nM.

For `C[C@@H](O)[C@H](NC(=O)[C@H](Cc1ccccc1)NC(=O)[C@@H](NC(=O)[C@H](CCCCN)NC(=O)[C@@H](Cc1c[nH]c2ccccc12)NC(=O)[C@H](Cc1ccccc1)NC(=O)[C@H](Cc1ccccc1)NC(=O)[C@H](N)Cc1ccccc1)[C@@H](C)O)C(N)=O` [BIM-23052, H-D-Phe-Phe-Phe-D-Trp-Lys-Thr-Phe-Thr-NH2] (H-[dF]FF[dW]KTFT-NH2), the Ki (rat SSTR-2) was 8.04 nM, the Ki (rat SSTR-5 [1]; read-out: Ki SSTR-5) was 3.16 nM and the “SSTR-2/SSTR-5 (ratio of Ki's)” value (rat SSTR-5 [2]) was 2.54. The “SSTR-2/SSTR-5 (ratio of Ki's)” value (human SSTR-5) was 11.5, the “decrease in glucose stimulated amylin secretion” value (rat Pancreas cells) was 78% and the Ki (human SSTR-2) was 14.1 nM.

For `C[C@@H](O)[C@H](NC(=O)[C@H](Cc1ccccc1)NC(=O)[C@@H](NC(=O)[C@H](CCCCN)NC(=O)[C@@H](Cc1c[nH]c2ccccc12)NC(=O)[C@H](Cc1ccccc1)NC(=O)[C@H](Cc1ccccc1)NC(=O)[C@H](N)Cc1ccccc1)[C@@H](C)O)C(=O)O` [Analog I, H-D-Phe-Phe-Phe-D-Trp-Lys-Thr-Phe-Thr-OH] (H-[dF]FF[dW]KTFT-OH), the Ki (rat SSTR-2; [3]) was 37.2 nM, the Ki (rat SSTR-5 [1]; read-out: Ki SSTR-5) was 3.57 nM and the “SSTR-2/SSTR-5 (ratio of Ki's)” value (rat SSTR-5 [2]) was 10.4. For the same compound, the Ki (human SSTR-5) was 12.4 nM, the “SSTR-2/SSTR-5 (ratio of Ki's)” value (human SSTR-5) was 1.14 and the Ki (human SSTR-2) was 14.2 nM.

Work on `C[C@@H](O)[C@@H]1NC(=O)[C@H](CCCCN)NC(=O)[C@@H](Cc2c[nH]c3ccccc23)NC(=O)[C@H](Cc2ccccc2)NC(=O)[C@@H](NC(=O)[C@H](N)Cc2ccccc2)CSSC[C@@H](C(=O)N[C@H](CO)[C@@H](C)O)NC1=O` [SMS 201-995, H-D-Phe-Cys-Phe-D-Trp-Lys-Thr-Cys-Threoninol, reference compound] yielded a Ki (rat SSTR-5 [1]) of 9.14 nM.

`CC(C)[C@@H]1NC(=O)[C@H](CCCCN)NC(=O)[C@@H](Cc2c[nH]c3ccccc23)NC(=O)[C@H](Cc2ccc(O)cc2)NC(=O)[C@@H](NC(=O)[C@H](N)Cc2ccc3ccccc3c2)CSSC[C@@H](C(=O)N[C@H](C(N)=O)[C@@H](C)O)NC1=O` [BIM-23014, H-D-P-Nal-Cys-Tyr-D-Trp-Lys-Val-Cys-Ser-NH2, reference compound] was tested, and the Ki (rat SSTR-2) was 0.34 nM, the Ki (rat SSTR-5 [1]) was 64.8 nM and the “effect on glucose-induced amylin secretion (in words)” value (rat Pancreas cells) was “no effect”. The Ki (human SSTR-2) was 1.09 nM.

For Somatostatin-14 [reference compound], the “SSTR-2/SSTR-5 (ratio of Ki's)” value (rat SSTR-5 [2]) was 0.34, the “SSTR-2/SSTR-5 (ratio of Ki's)” value (human SSTR-5) was 0.20 and the “effect on glucose-induced amylin secretion (in words)” value (rat Pancreas cells) was “inhibited glucose-induced amylin secretion”.
